According to patent US20050008851A1, “Biosensor” (FUJI PHOTO FILM CO., LTD., priority 2003, published 2005):

Conditions: water at 20° C.
Work on `C=C(C)C(=O)OCCCC` [butyl methacrylate] yielded a solubility in water of 0.03 % by weight. In the case of `C=C(C)C(=O)OC` [methyl methacrylate], the solubility in water was 1.35 % by weight. `C=Cc1ccccc1` [styrene] gave a solubility in water of 0.03 % by weight.
